The values below come from ChEMBL document CHEMBL2429805, “Studies toward the development of new silicon-containing building blocks for the direct (18)F-labeling of peptides” (J Med Chem, 2013).

The target of data set [1] is T1, Gastrin-releasing peptide receptor (Homo sapiens, UniProt P30550). Put plainly: Binding affinity to GRP receptor (unknown origin).
Data set [2] in a line: Half life of the compound in water. It is filed as physicochemical.
Data set [3] concerns the target T1, Gastrin-releasing peptide receptor. The experiment in a line: Displacement of [125I]-Tyr4-bombesin from GRP receptor in human PC3 cells after 1 hr by gamma-counting analysis. It is filed as cell-based, PC-3.
Data set [4] in a line: Drug metabolism in PBS buffer assessed as compound hydrolysis. It is filed as physicochemical.
Data set [5] can be described thus: Drug metabolism in 0.9% NaCl assessed as compound hydrolysis. It is filed as physicochemical.

The structures appear in SMILES notation. pIC50: −log10 of the molar value.

T1 sequence (P30550 whole entry): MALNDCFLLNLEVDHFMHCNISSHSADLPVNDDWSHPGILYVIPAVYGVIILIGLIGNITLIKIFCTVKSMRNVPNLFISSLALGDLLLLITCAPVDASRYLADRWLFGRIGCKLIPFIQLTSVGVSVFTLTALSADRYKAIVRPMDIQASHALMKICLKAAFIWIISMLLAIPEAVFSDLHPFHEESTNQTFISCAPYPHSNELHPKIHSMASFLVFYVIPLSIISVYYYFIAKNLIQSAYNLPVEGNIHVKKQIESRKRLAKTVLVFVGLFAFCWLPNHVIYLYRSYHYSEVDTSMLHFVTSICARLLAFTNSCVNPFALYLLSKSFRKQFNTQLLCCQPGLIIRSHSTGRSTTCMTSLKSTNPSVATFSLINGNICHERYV

The compound `CC(C)C[C@H](NC(=O)C[C@H](O)[C@H](CC(C)C)NC(=O)[C@H](Cc1cnc[nH]1)NC(=O)CN(C)C(=O)[C@@H](NC(=O)[C@H](C)NC(=O)[C@H](Cc1c[nH]c2ccccc12)NC(=O)[C@H](CCC(N)=O)NC(=O)CCCCNC(=O)[C@H](CCCNC(=N)N)NC(=O)Cc1ccc([Si](F)(C(C)(C)C)C(C)(C)C)cc1)C(C)C)C(N)=O` had a pIC50 in data set [1] of 7.64. `CC(C)(C)[Si](F)(CCn1cc(CC(N)C(=O)O)nn1)C(C)(C)C` (configuration not stated) gave a half-life in data set [2] of 960 min. For the compound `CC(C)C[C@H](NC(=O)C[C@H](O)[C@H](CC(C)C)NC(=O)[C@H](Cc1cnc[nH]1)NC(=O)CN(C)C(=O)[C@@H](NC(=O)[C@H](C)NC(=O)[C@H](Cc1c[nH]c2ccccc12)NC(=O)[C@H](CCC(N)=O)NC(=O)CCCCNC(=O)[C@H](CS(=O)(=O)O)NC(=O)[C@H](CS(=O)(=O)O)NC(=O)Cc1ccc([Si](F)(C(C)(C)C)C(C)(C)C)cc1)C(C)C)C(N)=O`, in data set [3], the pIC50 is 8.08.

Regarding `CC(C)C[C@H](NC(=O)C[C@H](O)[C@H](CC(C)C)NC(=O)[C@H](Cc1cnc[nH]1)NC(=O)CN(C)C(=O)[C@@H](NC(=O)[C@H](C)NC(=O)[C@H](Cc1c[nH]c2ccccc12)NC(=O)[C@H](CCC(N)=O)NC(=O)CCCCNC(=O)[C@H](CCCNC(=N)N)NC(=O)C(O)C(O)C(=O)NCCc1ccc([Si](F)(C(C)(C)C)C(C)(C)C)cc1)C(C)C)C(N)=O` (some centres not stated), the pIC50 in data set [3] is 7.64. Consider `CC(C)(C)[Si]([18F])(CCO)C(C)(C)C`, for which the Drug metabolism entry in data set [4] and in data set [5] was “Active” each time. In data set [2], this compound had a half-life of 480 min.
